Laboratory results reported in patent US10793525B2, “13-cis-RAMBA retinamides that degrade MNKs for treating cancer” (UNIVERSITY OF MARYLAND, BALTIMORE, priority 2014, dated 2020).
Where two headings read alike, the source gives them in different places. One block for each compound: values may come before it.

Tests used:
[1] = test system: MDA-MB-468 human breast cancer cells; settings: MDA-MB-468 cells; previously reported in Ramalingam S, et al.; read-out: GI50s MDA-MB-468; cited from earlier work
[2] = test system: CWR22Rv1 human prostate carcinoma cells; settings: previously reported in Ramamurthy V et al., read-out: GI50s CWR22Rv1; cited from earlier work
[3] = test system: SKBR-3 human breast cancer cells; settings: SKBR-3 cells; previously reported in Ramalingam S, et al.; read-out: GI50s SKBR-3; cited from earlier work
[4] = test system: MDA-MB-231 human breast cancer cells; settings: MDA-MB-231 cells; previously reported in Ramalingam S, et al.; read-out: GI50s MDA-MB-231; cited from earlier work
[5] = test system: LNCaP human prostate carcinoma cells; settings: previously reported in Ramamurthy V et al., read-out: GI50s LNCaP; cited from earlier work
[6] = test system: PC-3 human prostate carcinoma cells; settings: PC-3 cells; previously reported in Ramamurthy V et al.; read-out: GI50s PC-3; cited from earlier work
[7] = test system: fAR, Mnk1/2, peIF4E, cyclin D1 and cleaved PARP; assay: Western blot of lysates from LNCaP cells; type: cell-based, human; settings: 0.6-20 μM, 24 hours
Description: (§1) MCF-7, MDA-MB-231, MDA-MB-468 and SKBR-3 human breast cancer cells and LNCaP, PC-3, and CWR22Rv1 human prostate carcinoma cells (American Type Culture Collection, Manassas, Va., USA) were maintained in RPMI 1640 media (Gibco-Life Technologies, Grand Island, N.Y., USA) supplemented with 10% fetal bovine serum and 1% penicillin/streptomycin. Western blotting was done as mentioned previously,^8, 13b using the following antibodies: AR, Bad, Bax, Bcl-2, eIF4E, Mnk1, Mnk-2, N-cadherin, PARP, peIF4E^ser209 purchased from Cell Signaling Technology, Danvers, Mass., USA. Anti-Mnk2 was purchased from Sigma-Aldrich and normal rabbit IgG, cyclin D1 was from Santa Cruz Biotechnology, CA, USA.
Equal protein concentrations from LNCaP cells treated with Compounds 16, 20 and 22 at different concentrations (0.6-20 μM) for 24 hours were separated by SDS-PAGE and western blots probed with antibodies to fAR, Mnk1/2, peIF4E, cyclin D1 and cleaved PARP. Vehicle treated cells were included as a control and all blots were reprobed for β-actin for loading control.

[8] = test system: MDA-MB-468 human breast cancer cells; assay: MTT cell proliferation assay, MDA-MB-468; type: cell-based; settings: MDA-MB-468 cells, SEM < 10%, read-out: GI50s MDA-MB-468
Description: as §1
(§2) Cells were plated (2500 cells/well) in 96 well plates and treated with or without specified compounds as described previously.^8a, 12b
(§3) The clinically relevant retinoids, ATRA and 4-HPR and the Mnk inhibitor, cercosporamide were used as comparators in the assays.

PC-3 cells = assay: Wound-healing assay, PC-3 cell migration; type: cell-based, human; settings: 5 μM, 24 hours
Procedure: (§4) Wound healing assay and matrigel invasion assay were also conducted as described previously using highly metastatic PC-3 cells following treatment with 5 μM of RRs for 24 h.^8a,26
(§5) Based on previous studies with closely related compound,^8 the inhibitory effects of Compounds 16, 20 and 22 on cell migration were evaluated, using the human metastatic PC cell line, PC-3 by wound-healing assay. PC-3 cells (5×10^5 cells/well) were seeded on Boyden chamber, grown to confluence and scratches made at experimental tome zero. The cells were treated with indicated compounds (5 μM each) for 24 hours. Representative photomicrographs of initial and final wounds are shown at 100× magnification. […] At 24 hours after cell monolayers were wounded, control cells had completely filled in the scratched area.

[9] = test system: Mnk1 and 2, peIF4E, eIF4E and cPARP; assay: Western blot of lysates from MCF-7, MDA-MB-231 and MDA-MB-468 cells; type: cell-based, human; settings: MCF-7, MDA-MB-231, MDA-MB-468 cells, 24 hours
Description: as §1
As we previously reported, the anti-proliferative effects of the 1st generation MNKDAs in BC cells was due to degradation of Mnk1/2 with subsequent depletion of peIF4E and induction of apoptosis.^8a To determine if these compounds modulate Mnk1/2 and related oncogenic proteins, the inventors performed western blot of lysates from MCF-7, MDA-MB-231 and MDA-MB-468 human breast cancer cells treated with Compounds 16, 20, and 22, or with vehicle (DMSO, negative control), or Compound 6 (positive control). Equal protein concentrations from MCF-7 (FIG. 3A), MDA-MB-231 (FIG. 3B) and MDA-MB-468 (FIG. 3C) cells treated for 24 hours with Compounds 16, 20 and 22 at the various concentrations as indicated and Compound 6 (20 μmol/L) were separated by SDS-PAGE and western blots probed with antibodies to Mnk1 and 2, peIF4E, eIF4E and cPARP. Vehicle treated cells were included as control and all blots were reprobed for GAPDH for loading control.

[10] = test system: MCF-7 human breast cancer cells; assay: MTT cell proliferation assay, MCF-7; type: cell-based; settings: Homo sapiens, MCF7; MCF-7 cells, MTT, SEM < 10%; read-out: GI50s MCF-7
Description: as §1, §2, §3

[11] = test system: MCF-7, MDA-MB-231, MDA-MB-468 and SKBR-3 human breast cancer cells; assay: MTT cell proliferation assay, four breast cancer cell lines together; type: cell-based; settings: range across the four BC cell lines, read-out: GI50s, range over the BC cell lines
Description: as §1, §2, §3

[12] = test system: MDA-MB-231 human breast cancer cells; assay: MTT cell proliferation assay, MDA-MB-231; type: cell-based; settings: MDA-MB-231 cells, SEM < 10%, read-out: GI50s MDA-MB-231
Description: as §1, §2, §3

[13] = test system: LNCaP human prostate carcinoma cells; assay: MTT cell proliferation assay, LNCaP; type: cell-based; settings: SEM < 10%, read-out: GI50s LNCaP
Description: as §1, §2, §3
(§6) The PC-3 cell line was the least sensitive to all the compounds tested.

[14] = test system: PC-3 human prostate carcinoma cells; assay: MTT cell proliferation assay, PC-3; type: cell-based; settings: PC-3 cells, SEM < 10%, read-out: GI50s PC-3
Description: as §1, §2, §3, §6

[15] = test system: SKBR-3 human breast cancer cells; assay: MTT cell proliferation assay, SKBR-3; type: cell-based; settings: SK-BR-3, SKBR-3 cells, SEM < 10%, read-out: GI50s SKBR-3
Description: as §1, §2, §3

[16] = test system: CWR22Rv1 human prostate carcinoma cells; assay: MTT cell proliferation assay, CWR22Rv1; type: cell-based; settings: SEM < 10%, read-out: GI50s CWR22Rv1
Description: as §1, §2, §3, §6

[17] = test system: Mnk-1, peIF4E and their downstream targets; assay: Molecular analysis of MDA-MB-231 tumors; type: in vivo; settings: MDA-MB-231 tumors from treated mice
Description: To assess their in vivo mode of action, we evaluated the effects of Compounds 20 and 22 on Mnk-1, peIF4E and their downstream targets.

MDA-MB-231 cells = assay: Wound-healing assay, MDA-MB-231 cell migration; type: cell-based, human; settings: 5 μM, 24 h
Procedure: as §4
as §5, with “BC” for “PC”, “MDA-MB-231” for “PC-3”, “h.” for “hours.”

[18] = test system: MDA-MB-231 xenograft tumors; assay: MDA-MB-231 anti-tumor efficacy study (xenograft); type: in vivo
Procedure: All animal studies were performed according to the guidelines and approval of the Animal Care Committee of the University of Maryland School of Medicine, Baltimore (UMB). Female Athymic Nude mice or male SCID (Charles Rivers Laboratories or UMB facilities) at 4-6 weeks of age were maintained in a pathogen-free environment. MDA-MB-231 (10×10^6) cells were subcutaneously implanted into Athymic Nude mice and CWR22Rv1 (1×10^6) cells into male SCID mice. Mice bearing established tumors (˜100 mm^3) were randomized into treatment groups of 6 and dosed with vehicle (40% β-cyclodexdrin in ddH2O), or compounds 20 and 22 (i.p., formulated in 40% β-cyclodexdrin in ddH2O, once daily, 5 days a week for 28 days).
The National Cancer Institute (NCI) criteria^23 were used to determine tumor growth efficacy of our compounds. Thus, percent test or treatment/control (% T/C), defined as the ratio of the median tumor volume for the treated group versus control group, was calculated as % T/C=[(median tumor volume of treated group at day 28)/(median tumor volume of control group at day 28)]×100.
Indeed, the two compounds were equipotent (FIG. 9A). […] Representative photos of the tumor-bearing mice in the control and the two treatment groups at termination of experiment (day 28) are presented in FIG. 9B.

[19] = MDA-MB-231 xenograft mice, i.p. 20 mg/kg 5×/week over 28 days

Compound: CC1=C(/C=C/C(C)=C/C=C/C(C)=C/C(=O)O)C(C)(C)CCC1 [ATRA, all-trans retinoic acid]
IC50 [1]: 14100 nM
IC50 [2]: 25100 nM
IC50 [3]: 22900 nM
IC50 [4]: 14100 nM
IC50 [5]: 47900 nM
IC50 [6]: 36300 nM

Compound: CC(=O)C1=C(O)C=C2Oc3c(C(N)=O)c(O)cc(O)c3[C@]2(C)C1=O [Cerco., cercosporamide]
IC50 [1]: 47900 nM
IC50 [3]: 26000 nM
IC50 [4]: 43600 nM

IC50 [8]: 2540 nM
IC50 [10]: 1900 nM
IC50 [11]: 1740 to 2540 nM
IC50 [12]: 1740 nM
IC50 [13]: 2690 nM
IC50 [14]: 8910 nM
IC50 [15]: 1730 nM
IC50 [16]: 1280 nM
Compound: CC1=C(/C=C/C(C)=C/C=C/C(C)=C\C(=O)Nc2ccccc2)C(C)(C)CCC1n1ccnc1 (centres unmarked) [Compound 16, (2Z,4E,6E,8E)-9-(3-(1H-imidazol-1-yl)-2,6,6-trimethylcyclohex-1-en-1-yl)-3,7-dimethyl-N-phenylnona-2,4,6,8-tetraenamide]
cleaved PARP (c-PARP) [7]: induced cleaved PARP
cyclin D1 [7]: significant depletion
expression of total eIF4E [7]: no noticeable effects
expressions of fAR, Mnk1 and Mnk2 [7]: significantly and in a dose-dependent fashion, reduced
migration of PC-3 cells (PC-3 cells): significantly inhibited migration
expression of total eIF4E [9]: no noticeable effects
expressions of Mnk1, Mnk2 and peIF4E [9]: significantly and dose-dependently, reduced
formation of c-PARP (apoptosis) [9]: dose-dependent formation of c-PARP

Compound: CC1=C(/C=C/C(C)=C/C=C/C(C)=C\C(=O)NCc2ccc(O)cc2)C(C)(C)CCC1n1ccnc1 (centres unmarked) [Compound 22, (2Z,4E,6E,8E)-9-(3-(1H-imidazol-1-yl)-2,6,6-trimethylcyclohex-1-en-1-yl)-N-(4-hydroxybenzyl)-3,7-dimethylnona-2,4,6,8-tetraenamide]
cleaved PARP (c-PARP) [7]: induced cleaved PARP
cyclin D1 [7]: significant depletion
expression of total eIF4E [7]: no noticeable effects
expressions of fAR, Mnk1 and Mnk2 [7]: significantly and in a dose-dependent fashion, reduced
IC50 [8]: 2700 nM
migration of PC-3 cells (PC-3 cells): significantly inhibited migration
Mnk1/2, peIF4E, cyclin D1 and Bcl-2 in tumors [17]: depletion
pro-apoptotic proteins Bad and Bax in tumors [17]: up-regulation
expression of total eIF4E [9]: no noticeable effects
expressions of Mnk1, Mnk2 and peIF4E [9]: significantly and dose-dependently, reduced
formation of c-PARP (apoptosis) [9]: dose-dependent formation of c-PARP
migration of MDA-MB-231 cells (MDA-MB-231 cells): significantly inhibited migration
body weight [18, 19]: did not lose body weight
signs of toxicity / adverse events [18, 19]: no apparent adverse events
suppression of tumor growth ([18]; MDA-MB-231 xenografts, i.p. 20 mg/kg 5×/week over 28 days): 85.4%
% T/C (treated/control median tumor volume) ([18]; MDA-MB-231 xenografts, i.p. 20 mg/kg 5×/week, day 28): 14.6%
IC50 [10]: 160 nM
IC50 [12]: 2230 nM
IC50 [13]: 1690 nM
IC50 [14]: 3540 nM
IC50 [15]: 2450 nM
IC50 [16]: 1860 nM
